Drawing on ChEMBL document CHEMBL6127107, “Oleanolic acid derivatives against drug-resistant bacteria and fungi by multi-targets to avoid drug resistance” (Eur J Med Chem, 2024), this text covers MIC for 13 compounds.

Converted amounts (≈) assume the structure as drawn.

In one experiment the test system is Staphylococcus aureus. Put plainly: Antimicrobial activity against methicillin-resistant Staphylococcus aureus 003. It counts as functional.
The next experiment relates to Enterococcus faecalis. Put plainly: Antimicrobial activity against vancomycin resistant Enterococcus faecalis ATCC 51299. It counts as functional.

Turning to `CC1(C)CC[C@]2(C(=O)O)CC[C@]3(C)C(=CC[C@@H]4[C@@]5(C)CCC(=O)C(C)(C)[C@@H]5CC[C@]43C)[C@@H]2C1` [OLEANONIC ACID], the MIC was determined as 256 µg/mL (≈ 563 µM) against Staphylococcus aureus and 512 µg/mL (≈ 1130 µM) with Enterococcus faecalis.
The matching figures for `C[C@H]1[C@H](C)CC[C@]2(C)CC[C@]3(C)C(=CC[C@@H]4[C@@]5(C)CC[C@H](O)C(C)(C)[C@@H]5CC[C@]43C)[C@H]12`: above 512 µg/mL and above 512 µg/mL.
On to `CC1(C)CC[C@]2(C(=O)O)CC[C@]3(C)C(=CC[C@@H]4[C@@]5(C)CC[C@H](O[C@@H]6O[C@H](C(=O)O)[C@@H](O)[C@H](O[C@@H]7OC[C@@H](O)[C@H](O)[C@H]7O)[C@H]6O)C(C)(C)[C@@H]5CC[C@]43C)[C@@H]2C1`, for which the minimum inhibitory concentration (MIC) in the experiment with Staphylococcus aureus and against Enterococcus faecalis was above 512 µg/mL in each case.
Regarding `CC1(C)[C@@H](O[C@@H]2O[C@H](C(=O)O)[C@@H](O)[C@H](O[C@@H]3O[C@H](C(=O)O)[C@@H](O)[C@H](O)[C@H]3O)[C@H]2O)CC[C@]2(C)[C@H]3C(=O)C=C4[C@@H]5C[C@@](C)(C(=O)O)CC[C@]5(C)CC[C@@]4(C)[C@]3(C)CC[C@@H]12` [GLYCYRRHIZINIC ACID], the MIC against Staphylococcus aureus and against Enterococcus faecalis was above 512 µg/mL in each case.
For `C[C@H]1[C@H](C)CC[C@]2(C)CC[C@]3(C)C(=CC[C@@H]4[C@@]5(C)CC[C@@H](O)[C@](C)(C(=O)O)[C@@H]5CC[C@]43C)[C@H]12` [BOSWELLIC ACID], the minimum inhibitory concentration (MIC) against Staphylococcus aureus and in the experiment with Enterococcus faecalis was 8 µg/mL (≈ 17.5 µM) throughout.
In the case of `C[C@H]1[C@H](C)CC[C@]2(C(=O)O)CC[C@]3(C)C(=CC[C@@H]4[C@@]5(C)C[C@@H](O)[C@H](O)[C@@](C)(CO)[C@@H]5CC[C@]43C)[C@H]12` [ASIATIC ACID], the MIC in the experiment on Staphylococcus aureus is 16 µg/mL (≈ 32.7 µM); in the experiment on Enterococcus faecalis, 32 µg/mL (≈ 65.5 µM).
Take `C[C@H]1[C@H](C)CC[C@]2(C)CC[C@]3(C)C(=CC(=O)[C@@H]4[C@@]5(C)CC[C@@H](O)[C@](C)(C(=O)O)[C@@H]5CC[C@]43C)[C@H]12` [11-KETO BOSWELLIC ACID]: the values for the MIC in the experiment on Staphylococcus aureus and in the experiment with Enterococcus faecalis were 16 µg/mL (≈ 34 µM) and 32 µg/mL (≈ 68 µM), respectively.
As for `C[C@H]1[C@H](C)CC[C@]2(C(=O)O)CC[C@]3(C)C(=CC[C@@H]4[C@@]5(C)CC[C@H](O)C(C)(C)[C@@H]5CC[C@]43C)[C@H]12` [URSOLIC ACID], the MIC against Staphylococcus aureus and in the experiment on Enterococcus faecalis was 64 µg/mL (≈ 140 µM) throughout.
Consider `COC(=O)[C@@]1(C)CC[C@]2(C(=O)OC3O[C@H](CO)[C@@H](O)[C@H](O)[C@H]3O)CC[C@]3(C)C(=CC[C@@H]4[C@@]5(C)CC[C@H](O[C@@H]6OC[C@@H](O)[C@H](O)[C@H]6O)[C@@](C)(CO)[C@@H]5CC[C@]43C)[C@@H]2C1` (stereo partly specified), for which the minimal inhibitory concentration (MIC) against Staphylococcus aureus and in the experiment on Enterococcus faecalis was above 512 µg/mL in each case.
Take `C=C1CC[C@]2(C)CC[C@]3(C)[C@H](CC[C@@H]4[C@@]5(C)CC[C@H](OC(C)=O)C(C)(C)[C@@H]5CC[C@]43C)[C@H]2[C@@H]1C` [TARAXASTEROL ACETATE]: the minimum inhibitory concentration (MIC) with Staphylococcus aureus and in the experiment with Enterococcus faecalis was above 512 µg/mL throughout.
Turning to `CC1(C)CC[C@]2(C(=O)O[C@@H]3O[C@H](CO)[C@H](O)[C@H](O)[C@H]3O)CC[C@]3(C)C(=CC[C@@H]4[C@@]5(C)CC[C@H](O[C@@H]6O[C@H](C(=O)O)[C@@H](O)[C@H](O)[C@H]6O)C(C)(C)[C@@H]5CC[C@]43C)[C@@H]2C1`, the MIC in the experiment with Staphylococcus aureus and against Enterococcus faecalis was above 512 µg/mL in each case.
On to `C[C@H]1[C@H](C)CC[C@]2(C(=O)O)CC[C@]3(C)C(=CC[C@@H]4[C@@]5(C)C[C@@H](O)[C@H](O)C(C)(C)[C@@H]5CC[C@]43C)[C@H]12` [COROSOLIC ACID], for which the minimal inhibitory concentration (MIC) in the experiment on Staphylococcus aureus turned out to be 16 µg/mL (≈ 33.8 µM); against Enterococcus faecalis, 32 µg/mL (≈ 67.7 µM).
On to `C[C@H]1[C@H](C)CC[C@]2(C(=O)O)CC[C@]3(C)C(=CC[C@@H]4[C@@]5(C)CCC(=O)C(C)(C)[C@@H]5CC[C@]43C)[C@H]12` [URSONIC ACID], for which the figures for the minimal inhibitory concentration (MIC) in the experiment on Staphylococcus aureus and in the experiment on Enterococcus faecalis were 128 µg/mL (≈ 282 µM) and 256 µg/mL (≈ 563 µM), respectively.
